Literature values, collected in patent US20140234405A1 (priority 2013, published 2014).
No end group written: not given here.

Tests used:
gastrin = conditions: 90 mg/day for 6 years or greater; cited from earlier work
[1] = test system: human pancreatic ductal tissue; conditions: in vitro, without epidermal growth factor; cited from earlier work
beta cell mass = conditions: after infusion of gastrin in rats; cited from earlier work
type 2 diabetes = conditions: 12 weeks, cited from earlier work

Compound: Cc1c(OCC(F)(F)F)ccnc1C[S+]([O-])c1nc2ccccc2[nH]1 (stereo not shown) [Lansoprazole, 1H-Benzimidazole,2-[[[3-methyl-4-(2,2,2-trifluoroethoxy)-2-pyridinyl]methyl]sulfinyl]-2-[[[3-Methyl-4-(2,2,2-trifluoroethoxy)-2-pyridyl]-methyl]sulfinyl]benzimidazole]
- gastrin levels relative to normal (gastrin): ~7 fold
- safety profile (gastrin): sustained safety profile

Compound: gastrin: gastrointestinal hormone demonstrated to result in new beta cell formation (QGPWLEEEEEAYGWMDF; ends and bridges not checked; UniProt P01350 76-92, looked up)
- beta cell neogenesis from human pancreatic ductal tissue [1]: induce beta cell neogenesis
- beta cell mass (beta cell mass): doubling beta cell mass

Compound: COc1ccc2nc([S@@+]([O-])Cc3ncc(C)c(OC)c3C)[nH]c2c1 [esomeprazole]
- insulin secretion, glycaemic control, cardiovascular disease biomarkers (type 2 diabetes; patients with type 2 diabetes): did not improve
- change in insulin AUC (type 2 diabetes; control group had 16.3% reduction): no decline in insulin AUC
- increase in area under the curve (AUC) of gastrin (type 2 diabetes; 20 type 2 diabetes patients, 40 mg): 9 fold
